Literature values, collected in US20170027865A1, “Dry Pharmaceutical Compositions for Topical Delivery of Oral Medications, Nasal Delivery and to Treat Ear Disorders” (CMPD LICENSING LLC, priority 2013, published 2017).

Tests used:
[1] = tested on: Klebsiella (Calymmatobacterium) granulomatis; conditions: Gram: neg
Francisella tularensis = conditions: Francisella tularensis; Gram: neg
Serratia marcescens = conditions: Gram: neg
Campylobacter jejuni = conditions: Gram: neg
Bordetella pertussis = conditions: Gram: neg
Chlamydia psittaci = conditions: Chlamydia psittaci; Gram: n/a
Klebsiella pneumoniae = conditions: Gram: neg
Providencia rettgeri = conditions: Gram: neg
Pseudomonas aeruginosa = conditions: Gram: neg
[2] = tested on: Staphylococcus epidermidis; conditions: Gram: pos
Chlamydia trachomatis = conditions: Gram: n/a
Vibrio cholerae = conditions: Gram: neg
Rickettsiae = conditions: Rickettsiae; Gram: neg
Bartonella bacilliformis = conditions: Gram: neg
Proteus mirabilis = conditions: Gram: neg
Citrobacter freundii = conditions: Gram: neg
Acinetobacter lwoffii = conditions: Gram: neg
Neisseria meningitidis = conditions: Gram: neg
[3] = tested on: Staphylococcus aureus (MSSA); conditions: Gram: pos
Enterobacter aerogenes = conditions: Gram: neg
Escherichia coli = conditions: Gram: neg
Clostridium difficile = conditions: Gram: anaer
Haemophilus influenzae = conditions: Gram: neg
Legionella pneumophila = conditions: Legionella pneumophila; Gram: neg
Streptococcus pneumoniae = conditions: Gram: pos
Streptococcus pyogenes = conditions: Gram: pos
Chlamydia pneumoniae = conditions: Gram: n/a
Mycoplasma pneumoniae = conditions: Gram: n/a
Brucella species = conditions: Brucella species; Gram: neg
[4] = tested on: Methicillin Resistant Staph aureus (MRSA); conditions: Gram: pos
Enterococcus faecium = conditions: Gram: pos
Enterococcus faecalis = conditions: Gram: pos
Citrobacter diversus = conditions: Gram: neg
Acinetobacter baumannii = conditions: Gram: neg
Proteus vulgaris = conditions: Gram: neg
Pseudomonas fluorescens = conditions: Gram: neg
Bacteroides fragilis = conditions: Gram: anaer
[5] = tested on: Acinetobacter calcoaceticus; conditions: Gram: neg
Providencia stuartii = conditions: Gram: neg
Clostridium perfringens = conditions: Clostridium perfringens; Gram: anaer
Enterobacter cloacae = conditions: Gram: neg
Morganella morganii = conditions: Gram: neg
Moraxella catarrhalis = conditions: Gram: neg
Streptococcus agalactiae = conditions: Gram: pos
Enterobacter sakazakii = conditions: Gram: neg
Corynebacterium jeikeium = conditions: Gram: pos
Klebsiella oxytoca = conditions: Gram: neg
[6] = tested on: Corynebacterium urealyticum; conditions: Gram: pos
[7] = tested on: Viridans group streptococci; conditions: Gram: pos
Peptostreptococcus = conditions: Gram: pos
Shigella sonnei = conditions: Gram: neg
Diphtheroids = conditions: Gram: pos
Neisseria gonorrhoeae = conditions: Gram: neg
Yersinia pestis = conditions: Yersinia pestis; Gram: neg
Haemophilus ducreyi = conditions: Gram: neg
Shigella dysenteriae = conditions: Gram: neg
Shigella flexneri = conditions: Gram: neg
Shigella boydii = conditions: Gram: neg

SMILES: CC[C@H]1OC(=O)[C@H](C)[C@@H](O[C@H]2C[C@@](C)(OC)[C@@H](O)[C@H](C)O2)[C@H](C)[C@@H](O[C@@H]2O[C@H](C)C[C@H](N(C)C)[C@H]2O)[C@](C)(O)C[C@@H](C)CN(C)[C@H](C)[C@@H](O)[C@]1(C)O [Azithromycin, azithromycin]
- Expected coverage [1]: no
- Expected coverage (Francisella tularensis): no
- Expected coverage (Serratia marcescens): no
- Expected coverage (Campylobacter jejuni): yes
- Expected coverage (Bordetella pertussis): yes
- Expected coverage (Chlamydia psittaci): yes
- Expected coverage (Klebsiella pneumoniae): no
- Expected coverage (Providencia rettgeri): no
- Expected coverage (Pseudomonas aeruginosa): no
- Expected coverage [2]: yes
- Expected coverage (Chlamydia trachomatis): yes
- Expected coverage (Vibrio cholerae): yes
- Expected coverage (Rickettsiae): yes
- Expected coverage (Bartonella bacilliformis): yes
- Expected coverage (Proteus mirabilis): no
- Expected coverage (Citrobacter freundii): no
- Expected coverage (Acinetobacter lwoffii): no
- Expected coverage (Neisseria meningitidis): yes
- Expected coverage [3]: yes
- Expected coverage (Enterobacter aerogenes): no
- Expected coverage (Escherichia coli): no
- Expected coverage (Clostridium difficile): no
- Expected coverage (Haemophilus influenzae): yes
- Expected coverage (Legionella pneumophila): yes
- Expected coverage (Streptococcus pneumoniae): yes
- Expected coverage (Streptococcus pyogenes): yes
- Expected coverage (Chlamydia pneumoniae): yes
- Expected coverage (Mycoplasma pneumoniae): yes
- Expected coverage (Brucella species): no
- Expected coverage [4]: no
- Expected coverage (Enterococcus faecium): no
- Expected coverage (Enterococcus faecalis): no
- Expected coverage (Citrobacter diversus): no
- Expected coverage (Acinetobacter baumannii): no
- Expected coverage (Proteus vulgaris): no
- Expected coverage (Pseudomonas fluorescens): no
- Expected coverage (Bacteroides fragilis): no
- Expected coverage [5]: no
- Expected coverage (Providencia stuartii): no
- Expected coverage (Clostridium perfringens): no
- Expected coverage (Enterobacter cloacae): no
- Expected coverage (Morganella morganii): no
- Expected coverage (Moraxella catarrhalis): yes
- Expected coverage (Streptococcus agalactiae): yes
- Expected coverage (Enterobacter sakazakii): no
- Expected coverage (Corynebacterium jeikeium): no
- Expected coverage (Klebsiella oxytoca): no

SMILES: C[C@@H]1[C@H](O)[C@@H](C)/C=C/C=C/CC/C=C/C=C/C=C/C=C/C(O[C@H]2O[C@H](C)[C@@H](O)[C@H](N)[C@@H]2O)CC2O[C@](O)(CC(O)C(O)CCC(O)CC(O)CC(O)CC(=O)O[C@H]1C)CC(O)C2C(=O)O (stereo partly drawn) [Nystatin, nystatin]
- Expected coverage (Candida species): yes

SMILES: NC[C@H]1O[C@H](O[C@H]2[C@H](O)[C@@H](O[C@H]3O[C@H](CO)[C@@H](O)[C@H](N)[C@H]3O)[C@H](N)C[C@@H]2N)[C@H](N)C[C@@H]1O [Tobramycin, tobramycin]
- Expected coverage [1]: yes
- Expected coverage [6]: no
- Expected coverage [7]: no
- Expected coverage (Peptostreptococcus): no
- Expected coverage (Serratia marcescens): yes
- Expected coverage (Campylobacter jejuni): yes
- Expected coverage (Bordetella pertussis): no
- Expected coverage (Chlamydia psittaci): no
- Expected coverage (Shigella sonnei): yes
- Expected coverage (Klebsiella pneumoniae): yes
- Expected coverage (Pseudomonas aeruginosa): yes
- Expected coverage (Diphtheroids): no
- Expected coverage (Neisseria gonorrhoeae): no
- Expected coverage [2]: no
- Expected coverage (Chlamydia trachomatis): no
- Expected coverage (Yersinia pestis): yes
- Expected coverage (Vibrio cholerae): no
- Expected coverage (Proteus mirabilis): yes
- Expected coverage (Citrobacter freundii): yes
- Expected coverage (Acinetobacter lwoffii): no
- Expected coverage (Haemophilus ducreyi): yes
- Expected coverage (Neisseria meningitidis): no
- Expected coverage [3]: no
- Expected coverage (Shigella dysenteriae): yes
- Expected coverage (Enterobacter aerogenes): yes
- Expected coverage (Escherichia coli): yes
- Expected coverage (Clostridium difficile): no
- Expected coverage (Shigella flexneri): yes
- Expected coverage (Haemophilus influenzae): yes
- Expected coverage (Legionella pneumophila): no
- Expected coverage (Streptococcus pneumoniae): no
- Expected coverage (Streptococcus pyogenes): no
- Expected coverage (Chlamydia pneumoniae): no
- Expected coverage (Mycoplasma pneumoniae): no
- Expected coverage [4]: no
- Expected coverage (Enterococcus faecium): no
- Expected coverage (Enterococcus faecalis): no
- Expected coverage (Citrobacter diversus): yes
- Expected coverage (Acinetobacter baumannii): no
- Expected coverage (Proteus vulgaris): yes
- Expected coverage (Pseudomonas fluorescens): yes
- Expected coverage (Bacteroides fragilis): no
- Expected coverage [5]: no
- Expected coverage (Shigella boydii): yes
- Expected coverage (Clostridium perfringens): no
- Expected coverage (Enterobacter cloacae): yes
- Expected coverage (Moraxella catarrhalis): yes
- Expected coverage (Streptococcus agalactiae): no
- Expected coverage (Enterobacter sakazakii): yes
- Expected coverage (Corynebacterium jeikeium): no
- Expected coverage (Klebsiella oxytoca): yes
